One compound from patent US9221907B2, “Anti-GPR49 monoclonal antibodies” (Bionomics Inc., priority 2011, dated 2015) can be followed below.

Structures are written as SMILES.

This test deals with colon tumor cells re-implanted in secondary recipients. Nature of the test: Secondary transplant of GPR49 mAb+irinotecan treated tumor cells. Type of test: in vivo, mouse. As to conditions: 140 day follow-up. The text has this:
Isolated tumor cells from control or GPR49 mAb+irinotecan treated tumors from the in vivo study outlined in Example 3 were harvested, pooled, dissociated and re-implanted in a limiting dilution secondary transplant assay to measure cancer stem cell frequency. For each treatment group, 8 mice were implanted with 10, 30, 100 cells. […]

`CCc1c2c(nc3ccc(OC(=O)N4CCC(N5CCCCC5)CC4)cc13)-c1cc3c(c(=O)n1C2)COC(=O)[C@]3(O)CC` [Irinotecan]: the mice with tumors is given as 7/8.
